Tested on: β glucosidase
Assay: Effect of FeSO4 on β glucosidase
Format: biochemical, Rauvolfia serpentina
Conditions: for Fold activity enhanced: relative to 0 mM
Description: Rauvolfia serpentina (Sarpgandha) plants were raised from root cuttings at the glass house of Central Institute of Medicinal and Aromatic Plants (CIMAP), Lucknow by following standard agronomic practices. The extraction of the glucosidase enzyme was optimized with respect to buffer, pH, protecting and stabilizing agents to obtain maximum extractable activity. All the operations of enzyme isolation were carried out at 0-4° C. unless specified otherwise. The extraction medium of present invention also relates to a process for the extraction of a B glucosidase from plant tissues from a natural source and useful for the cleaving of β-1,4 linkage of PNPG, said process comprising: homogenizing the plant tissue in a cold extraction medium (1 g tissue/3 ml). Flowers of Rauvolfia serpentina were homogenized in 100 mM K-phosphate buffer (pH 6.0) including 10 mM β-Mercapto ethanol and 2 mM E.D.T.A. (Ethylene Diamine Tetra Acetic Acid). The tissue homogenate was centrifuged at 12,000×g for 30 min at 4° C. and the clear supernatant was collected. Assays specific for the determination of optimum pH, optimum temperature, stability and activation were performed.
Enzyme activity was assayed using the modified method described by Stevens et al, assay mixture in a total volume of 200 μL contained 2.5 mM p-nitrophenyl β-D-glucopyranoside in 100 mM Citrate-Phosphate buffer (pH 5) at defined temperatures with 10 μL of enzyme preparation. After 15 min of incubation time the reaction was stopped by adding 800 μL of 1M Sodium carbonate and the absorbance of p-nitrophenol (the product of reaction) was measured at wavelength 405 nm.
Calculation of Units: The enzyme activity was expressed in terms of μmole of p-nitrophenol formed per minute using the molar extinction coefficient (E) 18,350 m^−1 cm^−1 [Estibalitz, O., Richard, O. A., and Ioannis, Z., 2001. The role of β-glucosidase in biosynthesis of 2,5-dimethyl-4-hydroxy-3 (2H)-furanone in strawberry. Flavour and Fragrance J., 16: 81-84.]

`O=S(=O)([O-])[O-].[Fe+2]` [FeSO4] was tested, and the “β glucosidase Activity (I.U.)” value (FeSO4 Conc. 1 mM) was 71.93 I.U, the Fold activity enhanced (FeSO4 Conc. 1 mM) was 1.74 Fold and the “β glucosidase Activity (I.U.)” value (FeSO4 Conc. 5 mM) was 335.69 I.U. For the same compound, the Fold activity enhanced (FeSO4 Conc. 5 mM) was 8.11 Fold, the “β glucosidase Activity (I.U.)” value (FeSO4 Conc. 10 mM) was 627.79 I.U and the Fold activity enhanced (FeSO4 Conc. 10 mM) was 15.16 Fold. For the same compound, the “effect of FeSO4 on enzyme activity” value (in words) was “activation”.

— patent US20070212745A1, “BETA-GLUCOSIDASE AND A PROCESS FOR EXTRACTION THEREOF” (priority 2006, published 2007)
